Assay results reported in patent US10905680B2, “Methods of treatment for cholestatic and fibrotic diseases” (Genfit, priority 2016, dated 2021).

Experiments:
[1] = tested on: human primary hepatic stellate cells (hHSC); test: TGFβ1-induced expression of α-SMA protein in human HSC (ELISA); assay type: cell-based; details: Homo sapiens, 1 h preincubation, TGFβ1 1 ng/ml, 48 hours, read-out: IC50 (level of α-SMA in TGFβ-induced HSCs)
Description: Serum-deprived HSC were preincubated for 1 hour with NTZ (A) or TZ (B) before the activation with the profibrogenic cytokine TGFβ1 (1 ng/ml). After 48 hours of incubation, the expression of α-SMA was measured by ELISA. The obtained values were transformed into percentage inhibition over TGFβ1 control. Data are presented as mean (triplicates)±standard deviation (SD). Statistical analyses were performed by one-way ANOVA followed by Bonferroni post-hoc tests, using Sigma Plot 11.0 software. [*: p<0.05; **: p<0.01; ***: p<0.001 (comparison versus TGFβ1 1 ng/mL group)]. The curve fitting and the calculation of half maximal inhibitory concentration (IC50) were performed with XLFit software 5.3.1.3. The human primary hepatic stellate cells (hHSC) (Innoprot) were cultured in STeCM medium (ScienCell cat #5301) that was supplemented with 2% fetal bovine serum (FBS, ScienCell cat #0010), 1% penicillin/streptomycin (ScienCell cat #0503) and stellate cell growth supplement (SteCGS; ScienCell cat #5352). Cell culture flasks were coated with Poly-L Lysine (Sigma cat # P4707) for a better adherence. The human primary hepatic stellate cells (hHSC) (Innoprot) were cultured under standard conditions, as described above. The cells were subsequently plated at a density of 7×10^4 cells/well into 24-well plates for gene expression studies, and at a density of 2×10^4 cells/well into 96-well plates for the measure of α-SMA by ELISA. The next day, cell culture medium was removed, and cells were washed with PBS (Invitrogen cat #14190). hHSC were deprived for 24 hours in serum-free and SteCGS-free medium. For the treatments with NTZ or TZ, the serum-deprived hHSC were preincubated for 1 hour with the compounds followed by the addition of the profibrogenic stimuli TGFβ1 (PeproTech cat #100-21, 1 ng/mL) in serum-free and SteCGS-free medium for an additional 24 or 48 hour period (the timepoint is indicated in the figure legends). […] The level of α-SMA was measured using a Sandwich ELISA. […]

[2] = tested on: HSC; test: Toxicity assays in HSC; assay type: cell-based, human; details: data not shown

CC(=O)Oc1ccccc1C(=O)Nc1ncc([N+](=O)[O-])s1 [NTZ, [2-[(5-nitro-1,3-thiazol-2-yl)carbamoyl]phenyl]ethanoate, reference compound]
IC50 [1]: 0.1 to 3 µM
toxicity or apoptosis of HSC [2]: not due to toxicity or apoptosis
